Values quoted from earlier work, collected in patent US20220202720A1, “SUSTAINED RELEASE C[…] AND METHOD OF PREPARATION THEREOF” (PHARMATHEN S.A., priority 2019, published 2022).

Target: recombinant μ-opioid receptor (Homo sapiens, UniProt P35372)
Sequence (P35372 whole entry, species assumed): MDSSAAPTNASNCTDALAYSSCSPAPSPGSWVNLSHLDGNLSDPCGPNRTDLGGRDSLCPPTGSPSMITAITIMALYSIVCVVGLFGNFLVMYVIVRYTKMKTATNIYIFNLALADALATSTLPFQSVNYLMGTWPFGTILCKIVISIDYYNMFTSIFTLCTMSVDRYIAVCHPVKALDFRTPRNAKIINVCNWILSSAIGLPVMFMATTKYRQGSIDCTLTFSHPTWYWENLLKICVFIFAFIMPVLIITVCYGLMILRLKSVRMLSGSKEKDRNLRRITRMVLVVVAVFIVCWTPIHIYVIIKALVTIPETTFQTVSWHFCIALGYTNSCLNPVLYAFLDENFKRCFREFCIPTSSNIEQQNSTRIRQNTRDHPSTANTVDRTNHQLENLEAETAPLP

CC[C@@H](c1cccc(O)c1)[C@@H](C)CN(C)C [Tapentadol]
reduced affinity to recombinant μ-opioid receptor compared to morphine: 18 times
